Data reported in the NIST ThermoML archive (doi:10.1016/j.jct.2017.01.011).

Test: xn = mol fraction of the nth substance listed
Details: 100 kPa, Liquid; for speed of sound: Frequency=3 MHz, Single path-length method; for mass density: Vibrating tube method

OCC(O)CO [glycerol] + O
Details | mass density, 283.15 K [kg/m3] | mass density, 293.15 K [kg/m3] | mass density, 303.15 K [kg/m3] | mass density, 313.15 K [kg/m3] | speed of sound, 283.15 K [m/s] | speed of sound, 293.15 K [m/s] | speed of sound, 303.15 K [m/s] | speed of sound, 313.15 K [m/s]
x2 = 0 | 1267 | 1261 | 1255 | 1248 | 1942.3 | 1922.9 | 1901 | 1879.3
x2 = 0.1003 | 1261 | 1255 | 1249 | 1243 | 1951.7 | 1922 | 1897.9 | 1875.7
x2 = 0.1998 | 1254 | 1248 | 1242 | 1236 | 1940.9 | 1915.6 | 1893.3 | 1871.9
x2 = 0.3014 | 1246 | 1240 | 1234 | 1228 | 1931.5 | 1909 | 1888 | 1867.3
x2 = 0.4042 | 1236 | 1230 | 1224 | 1218 | 1919.2 | 1899.3 | 1879.7 | 1859.8
x2 = 0.5011 | 1224 | 1218 | 1212 | 1205 | 1903.7 | 1886 | 1867.9 | 1849.3
x2 = 0.6011 | 1206 | 1201 | 1194 | 1188 | 1879.7 | 1864.7 | 1848.8 | 1832
x2 = 0.7003 | 1183 | 1177 | 1172 | 1166 | 1841.6 | 1830.6 | 1818.2 | 1804.5
x2 = 0.7999 | 1148 | 1143 | 1137 | 1131 | 1772.9 | 1769.3 | 1763.5 | 1755.4
x2 = 0.9024 | 1091 | 1087 | 1083 | 1078 | 1648.7 | 1659.3 | 1665.8 | 1668.4
